Non-standard residues stand in square brackets, D forms with d. No end group written: not given here.
Assays:
[1] = system: mutant tau protein aggregates (EGFP-Tau P301L); experiment: Western blot of mutant tau protein aggregates in transfected HEK293T cells treated with bafilomycin; assay type: cell-based; details: 100 nM bafilomycin alone vs controls
[2] = system: α-synuclein protein aggregates (EGFP-a-synuclein A53T); experiment: Western blot of α-synuclein protein aggregates in transfected HEK293T cells treated with bafilomycin; assay type: cell-based; details: 100 nM bafilomycin alone vs control
Experimental: FIG. 4A is the results of a western blot analysis of a-synuclein expression levels of protein samples obtained 18 h after treatment of HEK293T cells transfected to express a-synuclein protein with either 100 nM bafilomycin alone or in combination with 30 μM of some peptides according to one embodiment of the present invention, to investigate the degradation of a-synuclein protein aggregates by treatment with some peptides (ZC303, ZC304, ZC309, ZC311) according to one embodiment of the present invention.
(§1) The present inventors conducted an Western blot analysis to investigate whether some of the peptides (ZC303, ZC304, ZC309, ZC311) comprising the amino acid sequences designated as SEQ ID NO: 1 to 15 could resolve SOD1 aggregates that formed after transient transfection of SOD1 protein into HEK293T cell lines. Specifically, the present inventors transiently transfected EGFP-SOD1 G93A DNA into the HEK293T cell line using Lipofectamine 2000. After transfection, the cell lines were incubated in a cell incubator at 37° C., 5% CO2 for 30 h and the culture medium was replaced with Minimum Essential Medium (MEM, Gibco, USA). After a 30 min pre-treatment with 100 nM bafilomycin, 30 μM of peptide was added and incubated for 18 h of post-treatment. […] The obtained cell lysate was subjected to protein quantification using BCA protein assay kit (Pierce Biotechnology, USA). […]

[3] = system: mutant huntingtin protein aggregates (GFP-mHttQ74); experiment: Western blot of mutant huntingtin protein aggregates in transfected HEK293T cells treated with bafilomycin; assay type: cell-based; details: 100 nM bafilomycin alone vs control
Experimental: FIG. 5 is the results of a Western blot analysis of mutant huntingtin protein expression levels of protein samples obtained 18 h after treatment of HEK293T cells transfected to express mutant huntingtin protein with either 100 nM bafilomycin alone or in combination with 30 μM of some peptides according to one embodiment of the present invention, to investigate the degradation of mutant huntingtin protein aggregates by treatment with some peptides (ZC303, ZC304, ZC309, ZC311) according to one embodiment of the present invention.
as §1

[4] = system: SOD1 protein aggregates (EGFP-SOD1 G93A); experiment: Western blot of SOD1 protein aggregates in transfected HEK293T cells treated with bafilomycin; assay type: cell-based; details: 100 nM bafilomycin alone vs control
Experimental: FIG. 2A is the results of a western blot analysis of SOD1 protein expression levels of protein samples obtained 18 h after treatment of HEK293T cells transfected to express SOD1 with either 100 nM bafilomycin alone or in combination with 30 μM of some peptides according to one embodiment of the present invention, to investigate the degradation of SOD1 protein aggregates by treatment with some peptides (ZC303, ZC304, ZC309, ZC311) according to one embodiment of the present invention. FIG. 2B is a graph showing the results of quantification of the relative expression. In FIG. 2B, * indicates a significant difference from the treatment with bafilomycin alone (* p<0.05).
The present inventors conducted an Western blot analysis to investigate whether some of the peptides (ZC303, ZC304, ZC309, ZC311) comprising the amino acid sequences designated as SEQ ID NO: 1 to 15 could resolve SOD1 aggregates that formed after transient transfection of SOD1 protein into HEK293T cell lines. Specifically, the present inventors transiently transfected EGFP-SOD1 G93A DNA into the HEK293T cell line using Lipofectamine 2000. […] The obtained cell lysate was subjected to protein quantification using BCA protein assay kit (Pierce Biotechnology, USA). […]

[5] = system: H4 cell lines expressing GFP-tagged LC3 (GL-H4); experiment: Autophagic flow blocked by Bafilomycin A-1: LC3-GFP puncta by fluorescence microscopy; assay type: cell-based; details: 100 nM bafilomycin alone, GL-H4 cells
Experimental: FIGS. 1A and 1B are a series of fluorescence micrographs showing that autophagic flow blocked by Bafilomycin A-1 is restored by the peptides according to one embodiment of the present invention, wherein an H4 cell line (GL-H4) stably overexpressing GFP-LC3 protein was treated with various peptides according to one embodiment of the present invention at a concentration of 20 μM in combination with Bafilomycin, whose LC3-GFP spots were photographed after 12 hours. FIGS. 1C and 1D are graphs showing quantification of the fluorescence intensity of LC3-GFP spots 12 hours after the treatment of the GL-H4 cell line with the peptides according to one embodiment of the present invention in combination with bafilomycin at a concentration of 20 μM. […]
To investigate the effect of the peptides comprising the amino acid sequences designated as SEQ ID NOs: 1 to 15 on autophagic flow, the present inventors treated H4 cell lines expressing GFP-tagged LC3 (GL-H4) with MEM and then used the above peptides (20 μM) and the autophagy inhibitor Bafilomycin A-1, Baf A1, 100 nM) to inhibit autophagy. Later, the effect of the peptides according to one embodiment of the present invention was investigated by fluorescence microscopy analysis. […]

[6] = Body weight change in ALS model animals; assay type: in vivo; details: G93A-SOD1 mice, 40 mg/kg SC five days per week from age 112 to 200 days
Experimental: (§2) To determine whether the peptide according to one embodiment of the present invention has therapeutic effects on amyotrophic lateral sclerosis (ALS) in vivo, the present inventors administered the peptide according to one embodiment of the present invention (ZC311) to an amyotrophic lateral sclerosis model animal (G93A-SOD1) at 40 mg/kg by subcutaneous (SC) injection repeatedly five days per week (Monday through Friday) from the age of 112 days to 200 days.
The present inventors measured changes in body weight over time during the behavioral analysis of Experimental example 8-1 above.

β-amyloid aggregates = experiment: Thioflavin S and Congo red staining of β-amyloid plaques in brain sections of Alzheimer's model animals; assay type: in vivo; details: 5XFAD mice, cortex and hippocampus, 20 mg/kg IP, 25 weeks, vs model animals given PBS alone
From the text: To determine whether the peptides according to one embodiment of the present invention could inhibit the accumulation of β-amyloid aggregates in the brain as a pathologic phenomenon of Alzheimer's disease, even under realistic in vivo conditions as shown by the results of Experiments 4 and 5 above, brain tissue sections obtained from experimental animals sacrificed after the peptide administration for 25 weeks were stained with thioflavin S and Congo red that have selective affinity for β-amyloid plaques.
Specifically, for thioflavin S staining, the brain of a dementia model mouse was harvested and freeze-dried in O.C.T compound (Sakura finetec, USA), and brain sections were obtained by coronal sectioning and mounted on glass slides coated with 0.1% poly-L-lysine. The obtained brain sections were washed in 70% ethanol for 1 min, then in 80% ethanol for 1 min again, and stained in 1% thiflavin S solution (MilliporeSigma, USA) for 15 min. […] Finally, the β-amyloid senile spots were observed through fluorescence microscopy.
Congo red staining to identify amyloid was performed as follows. […] The amyloid senile spots were observed under a fluorescence microscope, and the number of stained senile spots and amyloid per brain section was counted and quantified with a statistical program (Graph prism).

[7] = system: amyotrophic lateral sclerosis model animal (G93A-SOD1); experiment: Survival rate of ALS model animals; assay type: in vivo; details: G93A-SOD1 mice, 40 mg/kg SC five days per week from age 112 days; untreated model 162 days
Experimental: as §2
In contrast, ALS model mice treated with the peptide according to one embodiment of the present invention began to die at a similar time to the control group, but the time to death was delayed (50% survival 183 days).

[8] = system: P-Tau S214, P-Tau T205, unphosphorylated tau, p62, LC3, β-amyloid (APP); experiment: Western blot of aggregate-forming proteins in cerebral cortex and hippocampus of Alzheimer's model animals; assay type: in vivo; details: 5XFAD mice, 20 mg/kg IP, 25 weeks
From the text: Based on the results of Experimental example 7-2 above, the present inventors investigated the expression of pathogenic aggregate-forming proteins such as tau protein, p62, and LC3 in brain tissue other than β-amyloid by Western blot analysis.
Specifically, cortical and hippocampal tissues were obtained from experimental animals sacrificed after experiments, and the tissues were lysed and subjected to Western blot analysis in the same manner as Experimental example 3, using antibodies that specifically bind to phosphorylated tau S214 (P-Tau S214), phosphorylated tau T205 (P-Tau T205), unphosphorylated tau, p62, LC3, and β-amyloid (APP), respectively.

[9] = system: amyotrophic lateral sclerosis model animal (G93A-SOD1); experiment: Rotarod test in ALS model animals; assay type: in vivo; details: G93A-SOD1 mice, 40 mg/kg SC five days per week from age 112 to 200 days, 15 rpm, 300 seconds
Experimental: as §2
The animals were then subjected to a rotarod test twice a week at intervals of up to 3-4 days to evaluate their motor function. The rotarod test was performed using a rotarod treadmill (Cat. No. DJ-345, Dae Jong, Seoul, Korea) to evaluate impaired coordination, the main symptom of basal ganglia lesion disease, by measuring the time for the subject animals (n=11, 8, and 10) to fall off the rod during three repetitions of 300 seconds at a constant speed of 15 rpm. 300 seconds was set to be a perfect score, and the highest score was used.

| Molecule | mutant tau protein aggregates [1] | α-synuclein protein aggregates [2] | mutant huntingtin protein aggregates [3] | SOD1 protein aggregates [4] | number and size of LC3 spots [5] | progressive body weight loss over time [6] | accumulation of β-amyloid aggregates (plaques, thioflavin S and Congo red) (β-amyloid aggregates) | 50% survival [7] | expression of aggregate-forming proteins in the cerebral cortex [8] | expression of aggregate-forming proteins in the hippocampus [8] | development of ataxia (rotarod) [9] |
| --- | --- | --- | --- | --- | --- | --- | --- | --- | --- | --- | --- |
| CO/C1=C\C(C)=C\[C@@H](C)[C@@H](O)[C@@H](C)C/C(C)=C/C=C/[C@H](OC)[C@@H]([C@@H](C)[C@@H](O)[C@H](C)[C@@]2(O)C[C@@H](O)[C@H](C)[C@@H](C(C)C)O2)OC1=O [bafilomycin, Bafilomycin A-1] | increased | increased | increased | increased | significantly increased | – | – | – | – | – | – |
| ZC311 ([dH]G[dV][dS]GHGQ[dH]G[dV][dH]G; not fully specified (residues 6, 8)) | – | – | – | – | – | not altered | significantly inhibited | 183 days | significantly lower | significantly lower | delayed |

From patent US20250326793A1, “Novel Peptide and Use Thereof” (Zincure Corp., priority 2022, published 2025)
